The supplement of paper PMC12463676, “Small-molecule dissolution of stress granules by redox modulation benefits ALS models” (Nature Chemical Biology, 2025)

How the values were obtained:
potassium arsenate = compound: O=[As]([O-])(O)O.[K+] [potassium arsenate]; experiment: thermal stability z-score vs DMSO; higher = more thermally stabilized by treatment; details: HeLa; arsenate concentration 1 mM
Experimental: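 Cellular thermal proteome profiling in HeLa cells treated with 1 mM arsenate for 1 h (DMSO pretreatment), heated to ten temperatures (37-66.3 °C). Soluble protein was quantified by TMT mass spectrometry relative to DMSO controls; the thermal stability score was transformed to a z-score; mean of n = 3 experiments.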

lipoamide = compound: NC(=O)CCCCC1CCSS1 [lipoamide]; experiment: as above; details: HeLa, lipoamide concentration 100 µM
Experimental: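 Cellular thermal proteome profiling in HeLa cells. Cells were treated with 100 µM lipoamide for 1 h, with or without 1 mM arsenate for a further 1 h, then heated to ten temperatures (37-66.3 °C), and soluble protein was quantified by TMT mass spectrometry relative to 0.1% DMSO controls. The thermal stability score (sum of log2 fold changes minus the abundance score) was transformed to a z-score; mean of n = 3 experiments.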

[1] = arsenate co-treatment: 1 mM arsenate 1 h
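Further: each temperature applied for 3 min, abundance score taken as mean log2 fold change at the two lowest temperatures, z-score obtained by mean subtraction and division by SD.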

Chain of UniProt Q9H8V3 (Q9H8V3 whole entry): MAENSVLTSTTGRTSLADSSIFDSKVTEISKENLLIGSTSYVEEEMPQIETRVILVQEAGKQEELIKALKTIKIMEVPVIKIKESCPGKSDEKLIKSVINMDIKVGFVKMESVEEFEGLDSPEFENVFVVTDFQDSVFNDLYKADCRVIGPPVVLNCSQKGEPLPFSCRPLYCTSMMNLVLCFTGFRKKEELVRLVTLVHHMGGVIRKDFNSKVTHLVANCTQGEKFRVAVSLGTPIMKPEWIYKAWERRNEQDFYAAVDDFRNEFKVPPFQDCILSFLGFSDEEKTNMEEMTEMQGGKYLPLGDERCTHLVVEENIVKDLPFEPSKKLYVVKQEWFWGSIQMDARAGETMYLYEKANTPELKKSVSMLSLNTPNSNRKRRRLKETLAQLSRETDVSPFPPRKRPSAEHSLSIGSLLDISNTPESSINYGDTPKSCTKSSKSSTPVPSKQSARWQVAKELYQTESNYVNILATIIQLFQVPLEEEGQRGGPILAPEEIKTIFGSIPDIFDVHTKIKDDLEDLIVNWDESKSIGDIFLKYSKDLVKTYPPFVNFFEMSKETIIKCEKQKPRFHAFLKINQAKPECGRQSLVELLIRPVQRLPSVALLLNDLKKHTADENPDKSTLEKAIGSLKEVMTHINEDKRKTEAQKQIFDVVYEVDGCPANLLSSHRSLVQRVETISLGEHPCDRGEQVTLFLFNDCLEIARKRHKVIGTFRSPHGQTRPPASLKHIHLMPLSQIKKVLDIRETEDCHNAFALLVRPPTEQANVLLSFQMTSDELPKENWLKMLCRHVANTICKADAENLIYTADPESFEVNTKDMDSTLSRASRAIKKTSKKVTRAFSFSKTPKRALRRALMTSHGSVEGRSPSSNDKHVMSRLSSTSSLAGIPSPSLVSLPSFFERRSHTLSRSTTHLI
Chain of UniProt O15439 (O15439 whole entry): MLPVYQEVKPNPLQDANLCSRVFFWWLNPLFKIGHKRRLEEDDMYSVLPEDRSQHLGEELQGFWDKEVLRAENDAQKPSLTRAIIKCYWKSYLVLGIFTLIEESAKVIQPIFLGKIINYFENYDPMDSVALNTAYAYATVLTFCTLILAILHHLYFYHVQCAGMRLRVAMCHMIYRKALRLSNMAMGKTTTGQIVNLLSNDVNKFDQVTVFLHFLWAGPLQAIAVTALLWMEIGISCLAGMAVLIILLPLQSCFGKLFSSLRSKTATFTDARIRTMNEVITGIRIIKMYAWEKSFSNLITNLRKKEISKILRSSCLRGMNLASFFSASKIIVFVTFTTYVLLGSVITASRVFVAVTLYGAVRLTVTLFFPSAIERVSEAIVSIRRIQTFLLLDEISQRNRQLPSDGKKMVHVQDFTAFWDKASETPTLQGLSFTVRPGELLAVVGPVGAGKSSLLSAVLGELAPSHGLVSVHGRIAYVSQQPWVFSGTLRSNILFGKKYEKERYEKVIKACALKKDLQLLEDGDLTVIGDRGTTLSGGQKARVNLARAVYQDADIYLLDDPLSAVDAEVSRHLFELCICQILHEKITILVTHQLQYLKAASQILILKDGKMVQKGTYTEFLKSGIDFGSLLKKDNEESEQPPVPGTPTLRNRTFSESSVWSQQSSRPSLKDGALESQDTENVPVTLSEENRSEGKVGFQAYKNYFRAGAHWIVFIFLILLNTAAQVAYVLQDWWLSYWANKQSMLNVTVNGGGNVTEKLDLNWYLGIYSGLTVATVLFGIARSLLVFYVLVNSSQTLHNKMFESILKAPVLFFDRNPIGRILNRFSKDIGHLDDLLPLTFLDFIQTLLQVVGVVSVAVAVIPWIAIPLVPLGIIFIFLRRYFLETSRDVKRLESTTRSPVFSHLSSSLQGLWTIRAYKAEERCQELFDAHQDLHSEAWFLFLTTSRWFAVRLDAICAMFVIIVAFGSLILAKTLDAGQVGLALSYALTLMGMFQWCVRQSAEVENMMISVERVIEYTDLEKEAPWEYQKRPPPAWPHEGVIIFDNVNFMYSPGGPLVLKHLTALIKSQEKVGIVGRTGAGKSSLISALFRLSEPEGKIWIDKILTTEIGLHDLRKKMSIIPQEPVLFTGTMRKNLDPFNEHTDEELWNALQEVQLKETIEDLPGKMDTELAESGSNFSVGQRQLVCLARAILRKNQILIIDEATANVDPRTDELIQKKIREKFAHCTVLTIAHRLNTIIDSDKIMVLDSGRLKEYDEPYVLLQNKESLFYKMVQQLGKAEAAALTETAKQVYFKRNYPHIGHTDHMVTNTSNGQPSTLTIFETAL
Chain of UniProt Q8IXB1 (Q8IXB1 whole entry): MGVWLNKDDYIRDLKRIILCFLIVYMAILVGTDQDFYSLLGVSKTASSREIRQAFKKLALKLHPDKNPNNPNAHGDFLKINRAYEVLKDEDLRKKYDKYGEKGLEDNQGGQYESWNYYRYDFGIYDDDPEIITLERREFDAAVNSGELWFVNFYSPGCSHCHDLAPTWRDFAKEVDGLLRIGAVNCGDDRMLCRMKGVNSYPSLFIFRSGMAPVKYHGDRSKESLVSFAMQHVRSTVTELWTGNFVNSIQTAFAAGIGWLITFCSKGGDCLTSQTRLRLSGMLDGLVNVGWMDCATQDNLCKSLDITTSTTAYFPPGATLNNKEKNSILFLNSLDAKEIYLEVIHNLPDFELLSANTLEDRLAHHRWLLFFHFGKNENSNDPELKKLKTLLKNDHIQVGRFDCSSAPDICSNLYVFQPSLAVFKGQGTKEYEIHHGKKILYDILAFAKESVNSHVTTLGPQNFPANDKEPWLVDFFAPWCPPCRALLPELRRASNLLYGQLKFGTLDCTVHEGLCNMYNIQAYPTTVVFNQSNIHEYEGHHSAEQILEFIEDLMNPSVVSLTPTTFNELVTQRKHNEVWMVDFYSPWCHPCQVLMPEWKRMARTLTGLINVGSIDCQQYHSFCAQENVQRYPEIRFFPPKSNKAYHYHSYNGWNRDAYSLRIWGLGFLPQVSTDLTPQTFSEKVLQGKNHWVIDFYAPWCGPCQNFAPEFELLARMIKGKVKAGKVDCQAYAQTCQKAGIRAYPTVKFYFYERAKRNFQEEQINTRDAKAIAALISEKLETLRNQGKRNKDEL
Chain of UniProt Q9ULH0 (Q9ULH0 whole entry): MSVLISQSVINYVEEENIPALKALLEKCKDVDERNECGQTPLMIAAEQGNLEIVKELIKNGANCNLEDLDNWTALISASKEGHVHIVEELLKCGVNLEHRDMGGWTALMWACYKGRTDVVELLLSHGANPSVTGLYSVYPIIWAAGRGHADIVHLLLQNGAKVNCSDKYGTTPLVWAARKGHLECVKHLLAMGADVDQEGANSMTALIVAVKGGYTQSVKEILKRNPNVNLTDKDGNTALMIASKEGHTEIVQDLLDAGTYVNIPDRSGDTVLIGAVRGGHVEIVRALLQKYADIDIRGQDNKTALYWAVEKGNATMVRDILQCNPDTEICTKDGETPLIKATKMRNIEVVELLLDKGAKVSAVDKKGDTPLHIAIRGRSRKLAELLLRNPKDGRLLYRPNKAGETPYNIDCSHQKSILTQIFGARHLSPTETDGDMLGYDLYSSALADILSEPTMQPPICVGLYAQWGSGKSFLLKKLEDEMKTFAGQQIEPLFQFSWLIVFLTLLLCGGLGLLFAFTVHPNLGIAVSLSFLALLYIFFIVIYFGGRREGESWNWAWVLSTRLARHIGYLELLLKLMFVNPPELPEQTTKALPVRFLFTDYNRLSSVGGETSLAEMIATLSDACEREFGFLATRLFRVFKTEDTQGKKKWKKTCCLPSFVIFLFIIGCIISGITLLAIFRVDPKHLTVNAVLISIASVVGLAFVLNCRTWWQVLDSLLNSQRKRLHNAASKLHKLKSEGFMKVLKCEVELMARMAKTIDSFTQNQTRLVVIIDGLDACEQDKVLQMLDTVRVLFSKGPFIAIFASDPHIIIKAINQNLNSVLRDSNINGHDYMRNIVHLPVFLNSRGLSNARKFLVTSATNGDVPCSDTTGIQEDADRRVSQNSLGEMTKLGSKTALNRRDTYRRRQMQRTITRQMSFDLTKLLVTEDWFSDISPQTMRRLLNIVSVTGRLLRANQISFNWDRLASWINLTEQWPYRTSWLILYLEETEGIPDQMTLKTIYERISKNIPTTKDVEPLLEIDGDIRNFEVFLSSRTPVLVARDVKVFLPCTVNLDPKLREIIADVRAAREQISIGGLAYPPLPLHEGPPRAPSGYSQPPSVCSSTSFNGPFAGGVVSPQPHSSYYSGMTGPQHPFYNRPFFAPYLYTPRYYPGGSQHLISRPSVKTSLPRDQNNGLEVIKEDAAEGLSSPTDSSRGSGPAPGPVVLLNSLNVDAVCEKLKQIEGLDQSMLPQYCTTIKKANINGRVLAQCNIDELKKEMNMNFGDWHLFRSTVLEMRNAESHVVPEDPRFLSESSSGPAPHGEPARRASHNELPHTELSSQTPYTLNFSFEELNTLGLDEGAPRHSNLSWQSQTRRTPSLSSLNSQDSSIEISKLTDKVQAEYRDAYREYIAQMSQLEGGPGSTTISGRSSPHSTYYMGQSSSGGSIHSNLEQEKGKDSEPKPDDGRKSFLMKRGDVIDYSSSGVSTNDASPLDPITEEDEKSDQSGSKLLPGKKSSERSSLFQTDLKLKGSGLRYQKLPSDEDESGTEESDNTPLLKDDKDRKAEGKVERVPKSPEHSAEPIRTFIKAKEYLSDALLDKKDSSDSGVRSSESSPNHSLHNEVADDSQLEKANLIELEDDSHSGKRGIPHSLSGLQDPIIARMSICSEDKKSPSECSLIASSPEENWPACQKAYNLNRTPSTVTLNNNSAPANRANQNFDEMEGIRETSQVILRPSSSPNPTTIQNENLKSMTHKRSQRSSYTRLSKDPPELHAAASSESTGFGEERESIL
Chain of UniProt O75663 (O75663 whole entry): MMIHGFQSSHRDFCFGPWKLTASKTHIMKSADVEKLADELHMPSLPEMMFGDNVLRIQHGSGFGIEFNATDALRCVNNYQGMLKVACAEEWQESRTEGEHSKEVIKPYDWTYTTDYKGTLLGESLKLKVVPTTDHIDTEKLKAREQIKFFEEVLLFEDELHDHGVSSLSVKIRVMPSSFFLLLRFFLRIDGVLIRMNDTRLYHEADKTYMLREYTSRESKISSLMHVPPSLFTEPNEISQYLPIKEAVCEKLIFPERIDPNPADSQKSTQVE

| Target | thermal stability z-score (potassium arsenate) | thermal stability z-score (lipoamide; [1]) | thermal stability z-score (lipoamide; arsenate co-treatment: none) |
| --- | --- | --- | --- |
| TBRG4 (UniProt Q969Z0) | 0.462 | -0.625 | -0.116 |
| DSP (UniProt P15924) | -0.576 | 3.08 | 3.94 |
| GSTO1 (UniProt P78417) | 0.362 | 3 | 2.41 |
| HDDC3 (UniProt Q8N4P3) | -0.222 | -0.522 | -1.05 |
| NDFIP1 (UniProt Q9BT67) | 1.41 | 1.07 | 0.0758 |
| OBSL1 (UniProt O75147) | -0.307 | -0.175 | -0.0603 |
| RWDD4 (UniProt Q6NW29) | 0.261 | -0.526 | -0.0479 |
| TYMP (UniProt P19971) | 0.13 | 0.856 | 0.677 |
| TMED7 (UniProt Q9Y3B3) | 0.0944 | -0.983 | -0.909 |
| STARD7 (UniProt Q9NQZ5) | 1.07 | 0.0874 | 1.42 |
| MICU1 (UniProt Q9BPX6) | 0.746 | -0.305 | -0.0396 |
| PPP1CC (UniProt P36873) | -0.446 | 0.0493 | -0.463 |
| USMG5 (UniProt Q96IX5) | 0.215 | 1.21 | 0.486 |
| TOR1AIP1 (UniProt Q5JTV8) | -0.146 | -2.27 | -2.09 |
| RAB5B (UniProt P61020) | -0.758 | 0.278 | -0.614 |
| GPALPP1 (UniProt Q8IXQ4) | -0.865 | -0.0123 | 0.162 |
| CPPED1 (UniProt Q9BRF8) | 0.792 | -0.0195 | 0.348 |
| ABHD12 (UniProt Q8N2K0) | -0.351 | -0.435 | -0.517 |
| RAB8B (UniProt Q92930) | -0.115 | 0.327 | 0.127 |
| SLC30A7 (UniProt Q8NEW0) | 0.418 | -1.48 | -1.78 |
| PWP1 (UniProt Q13610) | -2.52 | -0.0751 | -0.259 |
| DTL (UniProt Q9NZJ0) | -0.408 | -0.0028 | -0.0193 |
| PPID (UniProt Q08752) | 0.368 | 0.244 | -0.234 |
| BCAS3 (UniProt Q9H6U6) | -0.0972 | -0.0897 | 0.561 |
| LRPAP1 (UniProt P30533) | -0.32 | -1.07 | -0.56 |
| IMPA2 (UniProt O14732) | -0.728 | 0.737 | 0.182 |
| TOP3B (UniProt O95985) | -0.73 | 0.2 | -0.391 |
| SKA2 (UniProt Q8WVK7) | -0.271 | -0.397 | -0.0647 |

| Target | thermal stability z-score (potassium arsenate) | thermal stability z-score (lipoamide; [1]) | thermal stability z-score (lipoamide; arsenate co-treatment: none) |
| --- | --- | --- | --- |
| GNPDA1 (UniProt P46926) | 0.272 | 0.699 | 0.687 |
| SCFD2 (UniProt Q8WU76) | 0.043 | 0.0156 | -0.09 |
| DERA (UniProt Q9Y315) | -0.0631 | 0.0875 | -0.0376 |
| PRKAB1 (UniProt Q9Y478) | -0.528 | -0.236 | 0.539 |
| COBL (UniProt O75128) | -0.0126 | 0.182 | 0.154 |
| YDJC (UniProt A8MPS7) | -1.04 | -0.851 | -1.66 |
| RPL11 (UniProt P62913) | -1.44 | 0.156 | 0.371 |
| SHROOM1 (UniProt Q2M3G4) | 0.508 | -0.159 | -0.157 |
| CECR5 (UniProt Q9BXW7) | 0.99 | -0.169 | 0.0959 |
| TIPRL (UniProt O75663) | 0.122 | -0.215 | -0.0559 |
| CIAO1 (UniProt O76071) | -1.32 | 0.164 | 0.0342 |
| FAM107B (UniProt Q9H098) | 0.327 | -0.0721 | 0.629 |
| ASAP1 (UniProt Q9ULH1) | -0.0654 | 0.0666 | -0.0222 |
| ECT2 (UniProt Q9H8V3) | -0.475 | -0.0726 | -0.00204 |
| TRRAP (UniProt Q9Y4A5) | -1.16 | 0.918 | 0.759 |
| KIDINS220 (UniProt Q9ULH0) | 0.0983 | -0.105 | 0.516 |
| ABCC4 (UniProt O15439) | -0.0795 | 0.622 | 0.731 |
| RPS6KC1 (UniProt Q96S38) | -0.393 | -0.161 | -0.151 |
| DNAJC10 (UniProt Q8IXB1) | -0.253 | -3.47 | -2.86 |
| UBA6 | 0.0818 | -0.423 | -0.209 |
| SLC25A4 (UniProt P12235) | 0.373 | -0.0513 | 0.0728 |
| GALNT1 (UniProt Q10472) | -0.187 | -0.568 | -0.256 |
| UQCRFS1 (UniProt P47985) | -2.17 | 0.00262 | 0.279 |
| MTOR (UniProt P42345) | 0.0121 | 0.00431 | 0.137 |
| C1ORF198 (UniProt Q9H425) | 0.635 | -0.254 | 0.135 |
| CNNM3 (UniProt Q8NE01) | -0.561 | -0.728 | 0.192 |
| DAP3 (UniProt P51398) | 0.132 | -0.597 | -0.135 |
